Assay results published in US12697366B2, “Thermogenic compositions and methods” (Ohio State Innovation Foundation, priority 2016, dated 2026).
Non-standard residues stand in square brackets, D forms with d. Residues, ends and D or L forms follow the SMILES beside them. ξ: configuration not given here. *: point of attachment. Succinyl(20-O-(20S)-CPT) = CC[C@@]1(OC(=O)CCC(=O)*)C(=O)OCc2c1cc1n(c2=O)Cc2cc3ccccc3nc2-1; Fmoc = O=C(OCC1c2ccccc2-c2ccccc21)*; ξK = NCCCCC(N)C(=O)O; Bz = O=C(c1ccccc1)*; ξC = NC(CS)C(=O)O

Columns and labels:
[1] = system: HT-29 colorectal cancer cells; test: Viability / cytotoxicity assay on HT-29 colorectal cancer cells; type: cell-based, human; conditions: in vitro
3T3-L1 cells = test: LDH release cytotoxicity (CytoTox 96) in 3T3-L1 cells; type: cell-based, mouse; conditions: different concentrations, 6 hours
Description: Non-differentiated, 90% confluent 3T3-L1 cells were incubated with different concentrations of nanoscaffolds #1, #2, or #3 for 6 hours. Cytotoxicity was measured the lactate dehydrogenase (LDH), released upon cell lysis using The CytoTox 96 assay (Promega, Cat #G1780).

NCI-H23 = test: MTT cytotoxicity on NCI-H23; type: cell-based, human
Description: (§1) The non-oxidized CPT-CCKK nanotube was assessed for cytotoxic efficacy against human non-small cell lung cancer (NSCLC) cell lines A549, NCI-460, and NCI-H23, which were selected according to the indications of approved CPT derivative Topotecan. […] The explanation for the cytotoxicity results could be that CPT-CCKK release active CPT in a time-dependent manner, and the entire true concentration for CPT in the cell medium is less than that of free CPT. […] It has been reported before that the GSH level in H460 was almost twice higher than that in A549. Therefore, higher concentration of GSH in H460 accelerated the breakage of the disulfide bonds within the crosslinked CPT-CCKK nanotubes, leading to faster release of active CPT and higher in vitro cytoxicity.

A549 = test: MTT cytotoxicity on A549; type: cell-based; conditions: Homo sapiens
Description: as §1

NCI-460 = test: MTT cytotoxicity on NCI-460 (H460); type: cell-based; conditions: Homo sapiens
Description: as §1

DRG neurons = test: Neurite outgrowth of DRG neurons (ArrayScan XTI, Neuronal Profiling algorithm); type: cell-based, mouse; conditions: recombinant EFNA5 30 ng/mL, 24 hours
Description: Single cell suspensions from cervical, thoracic, and lumbar DRG neurons were isolated from terminally anesthetized C57BL/6 adult female mice (12-16 weeks old, The Jackson Laboratory). Dissected DRGs were enzymatically digested in a solution of collagenase type 2 (200 U/mL; Sigma, St. Louis, MO) and dispase I (5 U/mL; Sigma) on a shaker for 45 min at 37° C. (Davies et al., 1999). Enzyme solution was aspirated and cells were washed twice in Hank's Balanced Salt Solution 1× (HBSS; Mediatech Inc., Manassas, VA) before incubating in DNase I type II (5 mg/mL; Worthington Biochemical, Lakewood, NJ) for 5 min at room temperature. […] The neuron-enriched pellet was resuspended in DRG culture medium (DMEM/F12, 1% N2 supplement, and 0.05% Gentamicin) and live cells were counted on a hemocytometer using trypan blue exclusion. […] Cells were automatically imaged using a Thermo Scientific™ ArrayScan™ XTI Live High Content microscope and analyzed with the Neuronal Profiling algorithm (ThermoFisher) (Lerch et al., 2014). Total neurite length, average neurite length, number of branch points, critical value, dendrite maximum, and ramification index were averaged across all neurons detected per well, with 3 wells included per treatment. […] Dendrite maximum and critical value are parameters determined based on Scholl analysis, and are automatically generated by the software. […]

[2] = system: Brainbow (BB) mice fed a high-fat (HF) diet; test: Study 5: recombinant EFNA5 injected into iAb fat of Brainbow mice fed a HF diet; type: in vivo, mouse
Description: Brainbow (BB) B6.Cg-Tg(Thy1-Brainbow1.0)HLich/J mice were purchased from The Jackson Laboratory (n=7, females). 5-week old BB mice were fed a HF for 140 days. Then mice were randomly assigned into groups injected with PBS (n=3) and recombinant EFNA5 (n=4). Mice were individually housed for all treatment periods. Mice were injected into both iAb fat depots with 100 μL PBS/iAb depot or with PBS containing recombinant EFNA5 (Life Technologies, 45 ng/mL) every other day for 1 month. Metabolic measurements were performed. WAT were collected for protein, mRNA, and histology.
Metabolic parameters were measured by indirect calorimetry (CLAMS, Columbus Instruments, Columbus, OH) at ambient temperature (22° C.) with 12 h light/dark cycles. Animals were fed the same HF diet and water was provided ad libitum. Mice were placed individually and allowed to acclimatize in the chambers for 12 h. Oxygen consumption, CO2 production, energy expenditure, and locomotor activity were measured for at least 24 h. […] For cold exposure the temperature was changed to 4° C. for 6 h.
Cell/tissue protein lysates normalized by protein content (BCA, ThermoFisher). Medium was collected from cells plated at similar numbers. Protein lysate or medium were separated on 10% acrylamide gel under reducing conditions. After transfer to a polyvinylidene fluoride membrane (Immobilon-P; Millipore), proteins were analyzed using an Odyssey Infrared Imaging System (LI-COR Biosciences). Peripherin and tyrosine hydroxylase polyclonal rabbit antibodies (Abcam, Cambridge, MA) were used at 1:1000 dilution.

3T3-L1 adipocytes = test: Thermogenic gene expression in 3T3-L1 adipocytes (TaqMan / RT-PCR); type: cell-based, mouse; conditions: recombinant EFNA5 10 ng/mL, 4 days
Description: FIGS. 9A to 9D show DRG neurons (500 neurons per well) cultured in DRG culture medium only, or DRG culture medium with NT-3 (1 ng/mL), with NGF (10 ng/mL), with WT secretome (1/1, v/v), or with Aldh1a1^−/− secretome (1/1, v/v) for 24 hours. WT and Aldh1a1^−/− adipocytes differentiated for 5 days. Secretome is the media collected from these cells for 24 h. Neurite outgrowth parameters were assayed using the Thermo Scientific™ ArrayScan™ XTI Live High Content microscope and analyzed with the Neuronal Profiling Algorithm (ThermoFisher). Nine independent experiments were performed using DRG from three mice. Each DRG batch was analyzed in triplicate. Data are shown as mean±SD obtained with one DRG batch. Asterisks indicate P<0.05 between different groups; Mann-Whitney U test. FIG. 9A: Representative images show ~25% of area used for the automatic quantification of neuronal parameters in FIG. 3 per one condition. […] FIG. 9B: Secreted EFNA5 levels in the medium from 3T3-L1 preadipocytes and adipocytes differentiated for 4d were analyzed by ELISA. FIG. 9C: Basal metabolic rate (heat) was measured in PBS- and EFNA5-injected mice from Table 1, Study 4 by an open circuit indirect calorimetry treadmill. […] Expression was measured by RT-PCR and normalized by 18S.
FIGS. 11A to 11I show adipokine Ereg is bilaterally associated with obesity and thermogenesis and activates PPARα. […] FIG. 11B: Ereg expression was measured in non-differentiated and differentiated (day 5) 3T3-L1 adipocytes (Mann-Whitney test) using a customized NanoString mouse panel. FIG. 11C: Ereg expression was measured in differentiated (day 5) 3T3-L1 and Aldh1a1^−/− adipocytes by Taqman and normalized to TATA box protein (TBP). FIG. 11D: Plasma EREG concentrations were measured in mice from Study 1 by western blot. […] FIG. 11E: Plasma EREG concentrations were measured and quantified in iAb of WT and ob/ob mice from Study 2 by western blot (n=5 per each group). […] FIG. 11F: EREG was measured in iAb, subcutaneous and brown fat by western blot. […] Expression level were measured by Taqman and normalized by TBP. […]

[3] = Study 5, BB mice, HF diet, EA5 vs PBS

Molecule: NCCCC[C@H](NC(=O)OCC1c2ccccc2-c2ccccc21)C(=O)N[C@@H](Cc1ccccc1)C(=O)N[C@@H](CCCCN)C(=O)N[C@@H](CCCCNC(=O)c1ccccc1)C(N)=O [Fmoc-KFKK(Bz)-NH2] (Fmoc-KFKK(Bz)-NH2)
- cytotoxic efficacy against human colorectal cell line [1]: no efficacy

Molecule: CCN(CC)c1ccc2cc(C(=O)NCCCC[C@H](NC(=O)[C@H](CCCCN)NC(=O)OCC3c4ccccc4-c4ccccc43)C(N)=O)c(=O)oc2c1 [nanoscaffold #2, Fmoc-KK(DAC)]
- cytotoxicity (LDH release) (3T3-L1 cells): not toxic

Molecule: Fmoc-KK(SucBz) [nanoscaffold #1]
- cytotoxicity (LDH release) (3T3-L1 cells): not toxic

Molecule: CC[C@@]1(OC(=O)CCC(=O)NC(CS)C(=O)NC(CS)C(=O)NC(CCCCN)C(=O)NC(CCCCN)C(N)=O)C(=O)OCc2c1cc1n(c2=O)Cc2cc3ccccc3nc2-1 (stereo partly drawn) [CPT-CCKK] ({Succinyl(20-O-(20S)-CPT)}-[ξC][ξC][ξK][ξK]-NH2)
- less cytotoxic than parental drug CPT (NCI-H23; H23 cell lines): roughly 3 folds

Molecule: CC[C@@]1(O)C(=O)OCc2c1cc1n(c2=O)Cc2cc3ccccc3nc2-1 [CPT, Camptothecin]
- IC50 (A549; 96 h MTT, experiment with non-oxidized nanotube (FIG. 36A)): 200 nM
- IC50 (A549; experiment with crosslinked nanotubes (FIG. 36B)): ~830 nM
- IC50 (NCI-H23; Homo sapiens, NCI-H23, 96 h MTT, experiment with non-oxidized nanotube (FIG. 36A)): 190 nM
- IC50 (NCI-460; NCI-460, 96 h MTT, experiment with non-oxidized nanotube (FIG. 36A)): 270 nM
- IC50 (NCI-460; H460, experiment with crosslinked nanotubes (FIG. 36B)): 350 nM

B1: EFNA5: recombinant ephrin-A5 ligand protein (protein)
chain: QDPGSKVVADRYAVYWNSSNPRFQRGDYHIDVCINDYLDVFCPHYEDSVPEDKTERYVLYMVNFDGYSACDHTSKGFKRWECNRPHSPNGPLKFSEKFQLFTPFSLGFEFRPGREYFYISSAIPDNGRRSCLKLKVFVRPTNSCMKTIGVHDRVFDVNDKVENSLEPADDTVHESAEPSRGEN
- dendritic maximum and critical value in neurons (DRG neurons): increased
- metabolic rate on cold exposure ([2]; EFNA5- vs. PBS-injected mice, 4° C.): increased
- tyrosine hydroxylase protein levels in WAT ([2]; EFNA5 vs. PBS, after 2 weeks of treatment, Western blot): increased
- Body Wt. [2, 3]: 28.7 ± 3.2 g
- Brown Fat [2, 3]: 0.1 ± 0.03 g
- Sub Fat [2, 3]: 1.0 ± 0.4 g
- iAb Fat [2, 3]: 1.2 ± 0.5 g
- regulation of expression of thermogenic genes (Ucp1) (3T3-L1 adipocytes): no direct effect
